From patent publication US20110268789A1, “USE OF PITUITARY ADENYLATE CYCLASE-ACTIVATING POLYPEPTIDE (PACAP) AND PACAP ANALOGS AS ADJUNCTIVE TREATMENTS WITH ANTICANCER AGENTS” (priority 2008, published 2011) come the findings set out here.

One assay has as its system Male C57BL/6 mice. The experiment in a line: Cisplatin-induced nephrotoxicity in mice. Conditions: cisplatin 20 mg/kg i.p. Type of assay: in vivo, mouse. How it is done:
(§1) Male C57BL/6 mice were given a single intraperitoneal injection of 20 mg/kg of cisplatin. Twenty nanomoles of PACAP38 were given intraperitoneally 1 hour before the injection of cisplatin and additional doses were given at 24 and 48 hours after the initial dose. The control group of mice was injected intraperitoneally with the same volume of saline as for the injections of cisplatin and PACAP38 on the same schedule. The mice were euthanized 24 hours after the final injection of PACAP38. Each value represents the mean plus/minus the standard error of four determinations. ***p<0.001 and **p<0.01 compared to the group treated only with cisplatin.
as §1, with “PACAP38. TNF-α was extracted from one kidney of each mouse and quantified with an enzyme-linked immunosorbent assay.” for “PACAP38.”
Male C57BL/6 mice were given a single intraperitoneal injection of 20 mg/kg of cisplatin. Twenty nanomoles of PACAP38 were given intraperitoneally 1 hour before the injection of cisplatin and additional doses were given at 24 and 48 hours after the initial dose. The control group of mice were injected intraperitoneally with the same volume of saline as for the injections of cisplatin and PACAP38 on the same schedule. The mice were euthanized 24 hours after the final injection of PACAP38, and the kidneys were removed and fixed in 10% formalin. The fixed sections were stained with hematoxylin and eosin. The sections of the kidneys from control mice show intact renal tubular epithelial cells and well-preserved brush border membranes. The kidneys from mice treated with cisplatin had extensive tubular damage, tubular dilations, intratubular debris, and intratubular casts. […] Tubular damage was more pronounced in the outer cortex in the cisplatin treated mice. The photomicrographs on the left side were made at a lower magnification (×160) than the photomicrographs on the right side (×320). The results described in FIGS. 5, 6, 7, and 8 were from the same experiment.
as §1, with “six” for “four”
as §1, with “The cytoprotective effect of PACAP38 against cisplatin-induced nephrotoxicity was also seen in a common in vivo model. Male” for “Male”, “PACAP38.” for “PACAP38. Each value represents the mean plus/minus the standard error of four determinations. ***p<0.001 and **p<0.01 compared to the group treated only with cisplatin.”

The subject of assay [1] is PC-12 rat pheochromocytoma cells. Put plainly: Cisplatin-induced apoptotic cell death of pheochromocytoma cells. Type of assay: cell-based. Conditions: PC-12 cells. How it is done: The PC-12 rat pheochromocytoma cells were cultured in F-12K medium supplemented with 15% horse serum and 2.5% fetal bovine serum. The dose-dependent inhibitory effects of PACAP38 and the PACAP38 analogs on apoptotic cell death were assessed by the quantitative determination of cytoplasmic histone-associated DNA-fragmentation (mono- and oligonucleosomes) after exposure to cisplatin for 24 hours. Each value represents the mean plus/minus the standard error of four determinations. **p<0.01 and *p<0.05 compared to the cisplatin-treated (control) cells.

Assay [2] relates to MCF-7 human breast cancer cells. Put plainly: Doxorubicin-induced apoptotic cell death of breast cancer cells. In kind it is cell-based. The following applies: MCF-7 cells, doxorubicin 48 hours, FIG. 14. How it is done:
The MCF-7 human breast cancer cells were cultured in Eagle's Minimum Essential Medium supplemented with 10% non-inactivated fetal bovine serum and 0.05 mM 2-mercaptoethanol. The effects of PACAP38 and N-acetyl[Ala^16,17,D-Lys^38]PACAP38 on apoptotic cell death were assessed by the quantitative determination of cytoplasmic histone-associated DNA-fragmentation (mono- and oligonucleosomes) after exposure to doxorubicin for 48 hours. Each value represents the mean plus/minus the standard deviation of three determinations. **p<0.01 compared to the doxorubicin-treated (control) cells.
At the highest dose tested (10^−6 M), both peptides reduced the apoptotic cell death of these breast cancer cells by more than 50%.

Assay [3] relates to light-chain immunoglobulin-secreting human myeloma cells. Put plainly: Vincristine-induced apoptotic cell death of myeloma cells. Type of assay: cell-based. On the procedure: The light-chain immunoglobulin-secreting human myeloma cells were cultured in RPMI 1640 medium supplemented with 10% non-inactivated fetal bovine serum and 0.05 mM 2-mercaptoethanol. The effects of PACAP38 on apoptotic cell death was assessed by the quantitative determination of cytoplasmic histone-associated DNA-fragmentation (mono- and oligonucleosomes) after exposure to vincristine for 48 hours. Each value represents the mean plus/minus the standard deviation of four determinations. **p<0.01 and *p<0.05 compared to the vincristine-treated (control) cells.

The test system is the same in assay [4]. The experiment in a line: Thalidomide-induced apoptotic cell death of myeloma cells. In kind it is cell-based. How it is done:
The light-chain immunoglobulin-secreting human myeloma cells were cultured in RPMI 1640 medium supplemented with 10% non-inactivated fetal bovine serum and 0.05 mM 2-mercaptoethanol. The effects of PACAP38 on apoptotic cell death was assessed by the quantitative determination of cytoplasmic histone-associated DNA-fragmentation (mono- and oligonucleosomes) after exposure to thalidomide for 48 hours. Each value represents the mean plus/minus the standard deviation of four determinations. **p<0.01 and *p<0.05 compared to the thalidomide-treated (control) cells.

For PACAP38, in the assay on Male C57BL/6 mice (20 nanomoles peptide i.p. 1 h before and at 24 and 48 h, ELISA, FIG. 8), the “increase in TNF-α in the kidney” value is given as “significantly reduced”. In addition, in the assay on Male C57BL/6 mice (20 nanomoles peptide i.p. 1 h before and at 24 and 48 h, FIG. 6), the “increase in serum creatinine” value is “significantly reduced”. For the same substance, in the assay on Male C57BL/6 mice (20 nanomoles peptide i.p. 1 h before and at 24 and 48 h, FIG. 7), the “increase in blood urea nitrogen” value is “significantly reduced”. In addition, the “morphology of the kidney (hematoxylin and eosin)” value with Male C57BL/6 mice (20 nanomoles peptide i.p. 1 h before and at 24 and 48 h, FIG. 9) is given as “relatively well preserved tubular morphology”. Moreover, the “relative potency as cytoprotectants against cisplatin-induced impairment of kidney function (serum creatinine)” value in the assay on Male C57BL/6 mice (FIG. 10) is “approximately equipotent”. The “reduction in cisplatin-induced apoptotic cell death” value in assay [1] (cisplatin 24 hours, FIG. 13) is “dose-dependent reduction”. For the same substance, the “reduction of cisplatin-induced apoptotic cell death” value in assay [1] (highest dose tested (10^−6 M)) is “significantly reduced”. The “reduction in doxorubicin-induced apoptotic cell death” value in assay [2] is given as “dose-dependent reduction”. In addition, the “lowest dose with significant enhancement of vincristine-induced apoptotic cell death” value in assay [3] is listed as 10^−9 M. Besides, the “effect on vincristine-induced apoptotic cell death” value in assay [3] (vincristine 48 hours, FIG. 18) is reported as “dose-dependent enhancement”. The “lowest dose with significant enhancement of thalidomide-induced apoptotic cell death” value in assay [4] is recorded as 10^−8 M. In addition, the “effect on thalidomide-induced apoptotic cell death” value in assay [4] (thalidomide 48 hours, FIG. 19) was “dose-dependent enhancement”.
